Results from PMC11071649, “Synthesis and Selective Anticancer Activity Evaluation of 2-phenylacrylonitrile Derivatives as Tubulin Inhibitors” (Current Medicinal Chemistry, 2024).
Read-outs that look alike come from different tables or passages of the source.

Assays:
Format in all cases: cell-based, human
A549 lung cancer cell = experiment: MTT anti-proliferative assay, A549; details: for IC50: MTT, 48 h
Experimental: (§1) The anti-proliferation activities of the synthesized analogs were assessed by an in vitro MTT assay conducted on thirteen human cell lines. Their cytotoxic activities were evaluated by measuring the inhibition of net cell growth. […]
(§2) 1.6. Cell lines and cell culture
(§3) MTT was purchased from Sigma-Aldrich Co. (St. Louis, MO, USA). The PI and Annexin V-FITC apoptosis detection kit were purchased from Invitrogen (Eugene, OR, USA). All human cell lines were used in this study. […]
(§4) cell, MCF-7 breast cancer cell, MCF-10A normal breast cell, Raji B lymphoblastoid cell and diffuse large B-cell lymphoma SU-DHL-10 cell were initially purchased from American Type Culture Collection (ATCC, Manassas, Virginia). media, DMEM, and FBS were provided from Gibco Company.
(§5) 1.7. Cell growth inhibition assay (MTT assay)
(§6) The experiment was carried out according to the method of reference. Briefly, cells were plated in 96-well plates at a den- […]
(§7) the anti-proliferative activities were determined by MTT assay. […]
(§8) (Becton-Dickinson, Franklin Lakes, NJ). […]

[1] = test system: MGC-803 late stage differentiation gastric cancer cell; experiment: MTT anti-proliferative assay, MGC-803; details: for IC50: MTT, 48 h
Experimental: as §1, §2, §3, §4, §5, §6, §7, §8

[2] = test system: HeLa cervical cancer cell; experiment: MTT anti-proliferative assay, HeLa; details: MTT, 48 h
Experimental: as §1, §2, §3, §4, §5, §6, §7, §8

[3] = test system: SGC-7901 early differentiation gastric cancer cell; experiment: MTT anti-proliferative assay, SGC-7901; details: for IC50: MTT, 48 h
Experimental: as §1, §2, §3, §4, §5, §6, §7, §8

[4] = test system: BEL-7402 liver cancer cell; experiment: MTT anti-proliferative assay, BEL-7402; details: for IC50: MTT, 48 h
Experimental: as §1, §2, §3, §4, §5, §6, §7, §8

HepG2 hepatoma cell = experiment: MTT anti-proliferative assay, HepG2; details: MTT, 48 h, read-out: IC50 HepG-2
Experimental: as §1, §2, §3, §4, §5, §6, §7, §8

AGS gastric cancer cell = experiment: MTT anti-proliferative assay, AGS; details: for IC50: MTT, 48 h
Experimental: as §1, §2, §3, §4, §5, §6, §7, §8

[5] = test system: MCF-10A normal breast cell; experiment: MTT assay, MCF-10A normal cells; details: 48 h
Experimental: as §1, §2, §3, §4, §5, §6, §7, §8

MCF-7 breast cancer cell = experiment: MTT anti-proliferative assay, MCF-7; details: for IC50: MTT, 48 h
Experimental: as §1, §2, §3, §4, §5, §6, §7, §8

[6] = test system: Raji B lymphoblastoid cell; experiment: MTT anti-proliferative assay, Raji
Experimental: as §1, §2, §3, §4, §5, §6, §7, §8

L-02 normal liver cell = experiment: MTT assay, L-02 normal cells; details: 48 h
Experimental: as §1, §2, §3, §4, §5, §6, §7, §8

[7] = test system: HCT116 colectal cancer cell; experiment: MTT anti-proliferative assay, HCT116; details: for IC50: MTT, 48 h
Experimental: as §1, §2, §3, §4, §5, §6, §7, §8

[8] = test system: diffuse large B-cell lymphoma SU-DHL-10 cell; experiment: MTT anti-proliferative assay, SU-DHL-10
Experimental: as §1, §2, §3, §4, §5, §6, §7, §8

[9] = MTT, 48 h, read-out: IC50 SU-DHL-10

Compound | IC50 (A549 lung cancer cell) [µM] | IC50 [1] [µM] | IC50 [2] [µM] | IC50 [3] [µM] | IC50 [4] [µM] | IC50 (HepG2 hepatoma cell) [µM] | SI (selectivity index), IC50 (L-02)/IC50 (AGS) (AGS gastric cancer cell) | IC50 (AGS gastric cancer cell) [µM] | IC50 [5] [µM] | IC50 (MCF-7 breast cancer cell) [µM] | IC50 ([6]; MTT, 48 h, read-out: IC50 Raji) [µM] | IC50 (L-02 normal liver cell) [µM] | SI (selectivity index), IC50 (L-02)/IC50 (HCT-116) [7] | IC50 ([7]; read-out: IC50 HCT-116) [µM] | IC50 [8, 9] [µM] | also measured
COc1cccc(/C=C(\C#N)c2ccc(C(F)(F)F)cc2)c1 [Compound 1f2t] | > 100 | > 100 | > 100 | > 100 | > 100 | > 100 | > 1.2 | 77.5 ± 3.9 | > 100 | > 100 | > 100 | > 100 | > 3.0 | 33.2 ± 0.2 | > 100 | 
CCc1ccc(/C=C(\C#N)c2ccc(OC(F)(F)F)cc2)cc1 [Compound 1a2f] | > 100 | 56.7 ± 11 | > 100 | 77.9 ± 12.6 | > 100 | > 100 | > 6.8 | 14.6 ± 5.9 | > 100 | 59.9 ± 2.3 | 42.7 ± 3.4 | > 100 | > 2.2 | 43.5 ± 3.8 | 15.1 ± 11.6 | SI (selectivity index), IC50 (L-02)/IC50 (MGC-803) [1]: > 1.7; SI (selectivity index), IC50 (L-02)/IC50 (SGC-7901) [3]: > 1.2; SI (selectivity index), IC50 (MCF-10A)/IC50 (MCF-7) (MCF-7 breast cancer cell): > 1.6; SI (selectivity index), IC50 (L-02)/IC50 (Raji) [6]: > 2.3; SI (selectivity index), IC50 (L-02)/IC50 (SU-DHL-10) [8]: > 6.6
N#C/C(=C\c1ccccc1F)c1ccc(C(F)(F)F)cc1 [Compound 1f2g] | > 100 | > 100 | > 100 | > 100 | > 100 | > 100 |  | > 100 | > 100 | > 100 | > 100 | > 100 |  | > 100 | > 100 | 
CCN(CC)c1ccc(/C=C(\C#N)c2ccc(C(F)(F)F)cc2)cc1 [Compound 1f2b] | > 100 | > 100 | > 100 | > 100 | > 100 | > 100 |  | > 100 | > 100 | > 100 | > 100 | > 100 | > 3.0 | 33 ± 5.8 | > 100 | 
N#C/C(=C\c1ccccc1)c1ccc(OC(F)(F)F)cc1 [Compound 1a2a] | > 100 | > 100 | > 100 | > 100 | > 100 | > 100 |  | > 100 | > 100 | > 100 | > 100 | > 100 |  | > 100 | > 100 | 
N#C/C(=C\c1ccc(C(F)(F)F)cc1)c1ccc(C(F)(F)F)cc1 [Compound 1f2k] | 47.8 ± 4 | > 100 | > 100 | > 100 | > 100 | > 100 | > 1.8 | 53.2 ± 13.2 | > 100 | > 100 | 77.4 ± 13.6 | > 100 |  | > 100 | > 100 | SI (selectivity index), IC50 (L-02)/IC50 (A549) (A549 lung cancer cell): > 2.0
N#C/C(=C\c1cn(-c2ccccc2)nn1)c1ccc(OC(F)(F)F)cc1 [Compound 7a] |  |  |  |  |  |  |  |  |  |  |  |  |  |  |  | IC50 (A549 lung cancer cell; Homo sapiens, A549): > 100 µM; IC50 ([1]; Homo sapiens, MGC-803): > 100 µM; IC50 ([2]; Homo sapiens, HeLa): > 100 µM; IC50 ([3]; Homo sapiens, SGC-7901): > 100 µM; IC50 ([4]; Homo sapiens, Bel-7402): > 100 µM; IC50 (HepG2 hepatoma cell; Homo sapiens, HepG2): > 100 µM; IC50 (AGS gastric cancer cell; Homo sapiens): > 100 µM; IC50 ([5]; Homo sapiens, MCF-10A): > 100 µM; IC50 (MCF-7 breast cancer cell; Homo sapiens, MCF7): > 100 µM; IC50 ([6]; Homo sapiens, Raji, MTT, 48 h, read-out: IC50 Raji): > 100 µM; IC50 (L-02 normal liver cell; Homo sapiens): > 100 µM; IC50 ([7]; Homo sapiens, HCT-116): > 100 µM; IC50 ([8]; Homo sapiens, SU-DHL10, MTT, 48 h, read-out: IC50 SU-DHL-10): > 100 µM
N#C/C(=C\c1ccc(/C=C/C(=O)c2ccc(F)cc2)cc1)c1ccc(OC(F)(F)F)cc1 [Compound 8c] | > 100 | 87.5 ± 0.6 | > 100 | 22.2 ± 8.6 | 77.4 ± 3 | > 100 | > 3.9 | 25.3 ± 7.5 | 15.8 ± 2.5 | 67.7 ± 5.4 | 1 ± 0.2 | > 100 | > 4.3 | 22.9 ± 6.2 | 1 ± 0.2 | SI (selectivity index), IC50 (L-02)/IC50 (MGC-803) [1]: > 1.1; SI (selectivity index), IC50 (L-02)/IC50 (SGC-7901) [3]: > 4.5; SI (selectivity index), IC50 (L-02)/IC50 (BEL-7402) [4]: > 1.2; SI (selectivity index), IC50 (L-02)/IC50 (Raji) [6]: > 99.0; IC50 ([6]; read-out: IC50 Raji cells): ~1 µM; SI (selectivity index), IC50 (L-02)/IC50 (SU-DHL-10) [8]: > 96.1; IC50 ([8]; read-out: IC50 SU-DHL-10 cells): ~1 µM
